Assay results from PubChem BioAssay AID330 (DTP/NCI, 2004).
Values joined by “and” are separate entries in the source; they are usually repeats but may differ in a detail not shown here. Equal values may be shown once. Toxic doses and inconclusive results are not listed. The calls were made as follows: active = survival T/C of 150% or more; inactive = T/C below 125% in these data.

Tested on: P388 leukemia ip, CD2F1 mice, survival T/C
Assay: NCI In Vivo Anticancer Drug Screen. Data for tumor model P388 Leukemia (intraperitoneal) in CD2F1 (CDF1) mice
Conditions: endpoint: median survival time, higher = longer survival
Summary of the method: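 Mice carrying the transplanted tumor received test compound or vehicle. Survival was recorded in each group, and the value is the treated-group measurement divided by that of the vehicle-treated control group.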

[1] = dose: 25.0 mg/kg/injection, schedule: Q04DX003 (ip), vehicle: Klucel (hydroxypropylcellulose) (HPC)
[2] = dose: 50.0 mg/kg/injection, schedule: Q01DX005 (ip), vehicle: saline with Tween-80
[3] = dose: 100.0 mg/kg/injection, schedule: Q01DX005 (ip), vehicle: saline with Tween-80
[4] = dose: 50.0 mg/kg/injection, schedule: Q01DX005 (ip), vehicle: saline
[5] = dose: 200.0 mg/kg/injection, schedule: Q01DX005 (ip), vehicle: saline with Tween-80
[6] = dose: 50.0 mg/kg/injection, schedule: Q01DX009 (ip), vehicle: saline with Tween-80
[7] = dose: 100.0 mg/kg/injection, schedule: Q04DX002 (ip), vehicle: Klucel (hydroxypropylcellulose) (HPC)
[8] = dose: 200.0 mg/kg/injection, schedule: Q04DX002 (ip), vehicle: Klucel (hydroxypropylcellulose) (HPC)

Measured: T/C

C1COC2(CCC3(CC2)OCCO3)O1
inactive: [1] 100 % of control | dose: 50.0 mg/kg/injection, schedule: Q04DX003 (ip), vehicle: Klucel (hydroxypropylcellulose) (HPC) 103 % of control | dose: 100.0 mg/kg/injection, schedule: Q01DX009 (ip), vehicle: saline sonified 111 % of control | dose: 100.0 mg/kg/injection, schedule: Q04DX003 (ip), vehicle: Klucel (hydroxypropylcellulose) (HPC) 101 % of control | dose: 200.0 mg/kg/injection, schedule: Q01DX009 (ip), vehicle: saline sonified 100 % of control | dose: 200.0 mg/kg/injection, schedule: Q04DX003 (ip), vehicle: Klucel (hydroxypropylcellulose) (HPC) 100 % of control | dose: 400.0 mg/kg/injection, schedule: Q01DX009 (ip), vehicle: saline sonified 100 % of control | dose: 400.0 mg/kg/injection, schedule: Q04DX003 (ip), vehicle: Klucel (hydroxypropylcellulose) (HPC) 99 % of control

CN1CCN=C1c1ccc(NC(=O)c2ccc(C(=O)Nc3ccc(C4=NCCN4C)cc3)c(Cl)c2)cc1
inactive: dose: 1.56 mg/kg/injection, schedule: Q01DX005 (ip), vehicle: Klucel (hydroxypropylcellulose) (HPC) 104 % of control | dose: 3.12 mg/kg/injection, schedule: Q01DX005 (ip), vehicle: Klucel (hydroxypropylcellulose) (HPC) 109 % of control | dose: 6.25 mg/kg/injection, schedule: Q01DX005 (ip), vehicle: Klucel (hydroxypropylcellulose) (HPC) 118 % of control and 123 % of control

C[C@]12CCC(=O)C[C@@H]1CC[C@@H]1[C@@H]2CC[C@]2(C)[C@@H](OC(=O)N(CCCl)N=O)CC[C@@H]12
inactive: dose: 25.0 mg/kg/injection, schedule: Q01DX005 (ip), vehicle: other 105 % of control | dose: 25.0 mg/kg/injection, schedule: Q01DX009 (ip), vehicle: other 120 % of control | dose: 25.0 mg/kg/injection, schedule: Q01DX009 (ip), vehicle: saline 106 % of control | dose: 31.2 mg/kg/injection, schedule: Q04DX003 (ip), vehicle: saline 116 % of control | dose: 50.0 mg/kg/injection, schedule: Q01DX005 (ip), vehicle: other 105 % of control | dose: 50.0 mg/kg/injection, schedule: Q01DX009 (ip), vehicle: saline 121 % of control | dose: 62.5 mg/kg/injection, schedule: Q04DX003 (ip), vehicle: saline 110 % of control | dose: 100.0 mg/kg/injection, schedule: Q01DX005 (ip), vehicle: other 112 % of control | dose: 100.0 mg/kg/injection, schedule: Q01DX009 (ip), vehicle: other 100 % of control

CCOc1ccc(/C=C(\C(=O)c2ccccc2)S(=O)(=O)c2ccc(OC)cc2)cc1OC
inactive: [2] 92 % of control | [3] 92 % of control

CN1CCC(CCl)C(c2ccccc2)C1 (stereo not drawn)
inactive: dose: 12.5 mg/kg/injection, schedule: Q01DX005 (ip), vehicle: saline 100 % of control | dose: 25.0 mg/kg/injection, schedule: Q01DX005 (ip), vehicle: saline 100 % of control | [4] 107 % of control

CC(=O)OC1C(C)OC(OC(=O)C2CCC3C(C2)OC2(CC(OC(=O)/C=C/c4ccccc4)C(C)CO2)C32CO2)C(OC2OC(C)C(O)C(O)C2O)C1O (stereo not drawn)
inactive: dose: 2.5 mg/kg/injection, schedule: Q01DX005 (ip), vehicle: saline + alcohol 96 % of control | dose: 5.0 mg/kg/injection, schedule: Q01DX005 (ip), vehicle: saline + alcohol 102 % of control and 107 % of control | dose: 10.0 mg/kg/injection, schedule: Q01DX005 (ip), vehicle: saline + alcohol 112 % of control

O=S(=O)(O)C1CC2C(c3ccccc31)N1ON2O1 (stereo not drawn)
inactive: [2] 102 % of control | [3] 100 % of control | [5] 100 % of control

Cc1nonc1CCO
inactive: [4] 105 % of control | dose: 100.0 mg/kg/injection, schedule: Q01DX005 (ip), vehicle: saline 102 % of control | dose: 200.0 mg/kg/injection, schedule: Q01DX005 (ip), vehicle: saline 103 % of control

O=C(O)CCCCCCCCCCNC(=O)CI
inactive: dose: 6.25 mg/kg/injection, schedule: Q01DX009 (ip), vehicle: Klucel (hydroxypropylcellulose) (HPC) 107 % of control | dose: 12.5 mg/kg/injection, schedule: Q01DX009 (ip), vehicle: Klucel (hydroxypropylcellulose) (HPC) 119 % of control | dose: 25.0 mg/kg/injection, schedule: Q01DX009 (ip), vehicle: Klucel (hydroxypropylcellulose) (HPC) 119 % of control

CCCCCCCCCCCCCC(CCCC)CCCCCCCC (stereo not drawn)
inactive: dose: 37.5 mg/kg/injection, schedule: Q01DX001 (ip), vehicle: saline sonified 104 % of control | dose: 75.0 mg/kg/injection, schedule: Q01DX001 (ip), vehicle: saline sonified 100 % of control | dose: 150.0 mg/kg/injection, schedule: Q01DX001 (ip), vehicle: saline sonified 100 % of control

CN(C)CNC(=O)c1ccccc1
inactive: dose: 1.25 mg/kg/injection, schedule: Q01DX009 (ip), vehicle: water 99 % of control | dose: 2.5 mg/kg/injection, schedule: Q01DX009 (ip), vehicle: water 121 % of control | dose: 5.0 mg/kg/injection, schedule: Q01DX009 (ip), vehicle: water 99 % of control | dose: 10.0 mg/kg/injection, schedule: Q01DX009 (ip), vehicle: water 100 % of control | dose: 20.0 mg/kg/injection, schedule: Q01DX009 (ip), vehicle: water 99 % of control

CCCCCCCCCCCCCCCC[N+](C)(C)CCNC(C)=O
inactive: dose: 12.5 mg/kg/injection, schedule: Q01DX009 (ip), vehicle: saline with Tween-80 100 % of control | dose: 25.0 mg/kg/injection, schedule: Q01DX009 (ip), vehicle: saline with Tween-80 102 % of control | [6] 90 % of control

C=C1CCC(Br)C2(C)CCC(C(C)(C)O)CC12 (stereo not drawn)
inactive: dose: 2.0 mg/kg/injection, schedule: Q01DX009 (ip), vehicle: Klucel (hydroxypropylcellulose) (HPC) 100 % of control | dose: 4.0 mg/kg/injection, schedule: Q01DX009 (ip), vehicle: Klucel (hydroxypropylcellulose) (HPC) 100 % of control | dose: 8.0 mg/kg/injection, schedule: Q01DX009 (ip), vehicle: Klucel (hydroxypropylcellulose) (HPC) 98 % of control | dose: 16.0 mg/kg/injection, schedule: Q01DX009 (ip), vehicle: Klucel (hydroxypropylcellulose) (HPC) 99 % of control

[CH3][Sn]1([Cl])[O]CCNCC[O]1
inactive: dose: 25.0 mg/kg/injection, schedule: Q01DX005 (ip), vehicle: Klucel (hydroxypropylcellulose) (HPC) 102 % of control and 97 % of control | dose: 50.0 mg/kg/injection, schedule: Q01DX005 (ip), vehicle: Klucel (hydroxypropylcellulose) (HPC) 98 % of control and 100 % of control and 92 % of control | dose: 100.0 mg/kg/injection, schedule: Q01DX005 (ip), vehicle: Klucel (hydroxypropylcellulose) (HPC) 101 % of control and 109 % of control and 94 % of control | dose: 200.0 mg/kg/injection, schedule: Q01DX005 (ip), vehicle: Klucel (hydroxypropylcellulose) (HPC) 102 % of control and 103 % of control

CC(CC(=O)c1ccccc1)=NCCN=C(C)CC(=O)c1ccccc1.[Cl][Sn][Cl]
inactive: dose: 100.0 mg/kg/injection, schedule: Q01DX001 (ip), vehicle: Klucel (hydroxypropylcellulose) (HPC) 97 % of control | dose: 200.0 mg/kg/injection, schedule: Q01DX001 (ip), vehicle: Klucel (hydroxypropylcellulose) (HPC) 102 % of control | dose: 400.0 mg/kg/injection, schedule: Q01DX001 (ip), vehicle: Klucel (hydroxypropylcellulose) (HPC) 101 % of control

CC(C)(C)OC(=O)NC(CCC(=O)O)C(=O)O (stereo not drawn)
inactive: [2] 100 % of control | [3] 97 % of control | [5] 103 % of control

COc1cc(/C=C/c2ccccn2)oc(=O)c1
inactive: [7] 102 % of control | [8] 100 % of control | dose: 400.0 mg/kg/injection, schedule: Q04DX002 (ip), vehicle: Klucel (hydroxypropylcellulose) (HPC) 100 % of control

O=C(C#Cc1ccccc1)c1cccnc1
inactive: dose: 12.5 mg/kg/injection, schedule: Q04DX003 (ip), vehicle: Klucel (hydroxypropylcellulose) (HPC) 107 % of control | [1] 107 % of control

Nc1ccc(S(=O)(=O)n2c(=O)oc3ccc(Cl)cc32)cc1
inactive: dose: 50.0 mg/kg/injection, schedule: Q04DX002 (ip), vehicle: Klucel (hydroxypropylcellulose) (HPC) 97 % of control | [7] 97 % of control | [8] 90 % of control

O=C1C(O)=C(c2ccccc2)C12CSC1(CS2)C(=O)C(O)=C1c1ccccc1 (stereo not drawn)
inactive: dose: 60.0 mg/kg/injection, schedule: Q01DX005 (ip), vehicle: saline with Tween-80 100 % of control | dose: 120.0 mg/kg/injection, schedule: Q01DX005 (ip), vehicle: saline with Tween-80 94 % of control | dose: 240.0 mg/kg/injection, schedule: Q01DX005 (ip), vehicle: saline with Tween-80 91 % of control

CCOC(=O)Cc1csc(=S)n1C
inactive: [2] 102 % of control | [3] 109 % of control | [5] 109 % of control

O=C1CN(c2ccccc2)C(=O)CN1Nc1ccccc1
inactive: [6] 93 % of control | dose: 100.0 mg/kg/injection, schedule: Q01DX009 (ip), vehicle: saline with Tween-80 93 % of control
